Read-outs that look alike come from different tables or passages of the source.
Columns and labels:
[1] = test system: KGN cells; assay: LDH membrane integrity assay (necrosis); format: cell-based, human
Description: (§1) The primary-derived granulosa cells, along with the KGN, JAr and OVCAR-3 cell lines (10,000 cells per well) were plated into sterile white (opaque) 96-well plates (Interpath) and clear sterile 96-well plates (Interpath) in 0.1 mL per well of complete cell culture medium for 24 h (granulosa, KGN and OVCAR-3 cells) and 2 h (for JAr cells) to allow cell adherence. Standard curves of 0–40,000 cells per well (primary granulosa cells) and 0–80,000 cells per well (for KGN, JAr and OVCAR-3 cells) in six replicate wells were plated into clear 96-well plates, alongside the test plates. After the initial cell adherence period, spent media (media deficient of nutrients and serum) were discarded and primary-derived granulosa, KGN, JAr and OVCAR-3 cells were treated with the two D. orbita fractions at concentrations of 0.005, 0.01, 0.05, 0.1, and 0.5 mg/mL in a final volume of 0.1 mL per well in triplicate wells, for 4 and 24 h at 37 °C + 5% CO2. 1 h prior to the end of eachincubation period two positive controls were added; one for apoptosis (1 μg/mL DNase I), and the second for necrosis (2 μL per well of a cell lysis buffer; Promega). This experiment was repeated on three separate occasions (n = 3).
(§2) After 4 and 24 h exposure to the D. orbita fractions in opaque 96-well plates, a combined membrane integrity and caspase 3/7 assay were performed on the primary-derived granulosa cells and KGN cells. The CytoTox-ONE Homogeneous Membrane Integrity Assay kit (Promega) was applied according to the manufacturer’s instructions. After the fluorescence was read at 535EX/590EM, the Caspase-Glo 3/7® assay (Promega) was applied to the primary granulosa cells and KGN cells according to the manufacturer’s instructions for1h and the plates were read on full light to capture total luminescence. The LDH-membrane integrity assay alone was performed on the JAr and OVCAR-3 cells using the CytoTox-ONE Homogeneous Membrane Integrity Assay kit (Promega). This assay was repeated on three separate occasions (n = 3).

[2] = test system: OVCAR-3 cells; assay: LDH membrane integrity assay (necrosis); format: cell-based, human
Description: as §1, §2

[3] = test system: JAr cells; assay: LDH membrane integrity assay (necrosis); format: cell-based, human
Description: as §1, §2

[4] = test system: caspase-3 and -7 activity in HGC; assay: Caspase-Glo 3/7 assay; format: cell-based, human; details: 4 h treatment
Description: as §1, §2

[5] = test system: caspase-3 and -7 activity in KGN cells; assay: Caspase-Glo 3/7 assay; format: cell-based, human; details: for concentration at which caspase-3 and -7 activity (apoptosis) significantly increased: 4 h treatment
Description: as §1, §2

[6] = test system: CaCo2 colon carcinoma cells; parameters: method as in PMID 19491143; details: CaCo2, 4 h exposure, tyrindoleninone in an impure extract; read-out: concentration giving 50% reduction in cell viability; cited from earlier work
[7] = test system: primary-derived human reproductive granulosa cells (HGC); assay: TUNEL staining (apoptosis); format: cell-based; details: for TUNEL positive cells: 4 h, 0.05 mg/mL; for TUNEL labelled cells: 24 h, 0.005 mg/mL
Description: (§3) Primary-derived human granulosa cells and KGN cells were plated into Nunc Lab-Tek II CC2 Chamber Slides at 30,000 cells per chamber well in a final volume of 0.3 mL of DMEM/F12 + 10% FBS complete cell culture medium and incubated for 24 h at 37 °C + 5% CO2 to allow cell attachment to slides. Spent media (media deficient of nutrients and serum) and non-viable and non-adherent cellswere discarded and replaced with the D. orbita fractions at concentrations of 0.005, 0.01 and 0.05 mg/mL in a final volume of 0.3 mL of DMEM/F12 + 10% medium. A medium-only and a 1% DMSO control were also added before incubation for 4 and 24 h at 37 °C + 5% CO2. This experiment was repeated on three separate occasions (n = 3). The supernatant was removed and the cells rinsed with PBS before fixation with 4% paraformaldehyde for 25 min at room temperature. The DeadEnd™ Fluorometric TUNEL System (Promega) was performed as recommended by the manufacturer. Briefly the cells were treated with 0.2% Triton X-100 for 5 min, to permeablize the cells. The cells were rinsed in PBS before the addition of 50 μL of rTdT incubation buffer (Promega) at 37 °C for 1 h, protected from light. Cells were rinsed in 2× sodium chloride and sodium citratesolution (Promega) for 15 min at room temperature (25 °C) then rinsed again with PBS. The cells were counter-stained with 1 μg/mL propidium iodide (PI). A separate positive control slide of 1 μg/mL DNase I, and a negative control slide of buffer without rTdT, was prepared in conjunction with treatment slides. Cells were examined immediately and photographed at 200 and 400× magnification using a Fluorescence Olympus BX50 Microscope with filter Chroma 31001 at excitation 450–495 nm, Dichroic 505 and emission 515–555 nm for the green fluorescein of TUNEL and Chroma 31002 at excitation 515–550 nm, Dichroic 565 and emission 575–615 nm for the red fluorescence of the PI staining. Photomicrographs of four fields of view were taken for each treatment in each repeat of theassay and the number of TUNEL positive nuclei, stained bright green, were calculated as a fraction of the total number of PI stained nuclei, stained bright red, in each image. The average of the four fields was then calculated.

[8] = test system: U937 lymphoma cell line; details: U937, 4 h exposure, tyrindoleninone in an impure extract; read-out: concentration giving 50% reduction in cell viability; cited from earlier work
[9] = test system: KGN cells; assay: TUNEL staining (apoptosis); format: cell-based, human; details: for TUNEL positive cells: 4 h, 0.05 mg/mL; for TUNEL labelled cells: 24 h, 0.005 mg/mL
Description: as §3

[10] = test system: KGN cells; assay: MTT cell viability assay; format: cell-based, human
Description: (§4) For cell assays, the D. orbita fractions were prepared fresh on the day of the experiment by dissolving in dimethyl sulfoxide (DMSO; 100%) at 100× the final concentration. These were diluted to a range of working concentrations (0.001–0.5 mg/mL) in complete cell assay medium to give a final working concentration per well of 1% DMSO. All samples were filtered through a […] (Sartorius) filter before use.
as §1
(§5) After 4, 24, 48 and 72 h exposure to D. orbita fractions in clear 96-well plates, media and all dead unattached cells were removed. The remaining adherent cells were rinsed with sterile 1× PBS and the MTT assay was performed. The MTT assay measures the reduction of a yellow substrate to formazan, a purple precipitate, by the mitochondrial succinate dehydrogenase enzymes. A solution of 0.5 mg/mL MTT (was added to wells in a final volume of 0.1 mL. The plates were then incubated for 1 h (JAr cells) and 18 h (KGN, OVCAR-3 and GC cells) at 37 °C and 5% CO2. At the end of the incubation period, 80 μL/well 20% SDS in 0.02 M HCl was added and plate was incubated for a further 1 h at room temperature in the dark. The absorbance was the measured at 570 nm, with reference absorbance 630 nm, using an automatic spectrophotometer using KC Junior software. This assay was repeated on three separate occasions (n = 3).

[11] = test system: OVCAR-3 cells; assay: MTT cell viability assay; format: cell-based, human; details: OVCAR-3, MTT
Description: as §4, §1, §5

[12] = test system: primary-derived human reproductive granulosa cells (HGC); assay: LDH membrane integrity assay (necrosis); format: cell-based
Description: as §1, §2

[13] = test system: lymphoma cell; parameters: method as in PMID 17088067; details: 1 h exposure; read-out: concentration giving (predicted) 50% reduction in lymphoma cell viability; cited from earlier work
[14] = test system: untransformed human mononuclear cells (MNC); parameters: method as in PMID 19491143, PMID 17088067; details: in vitro, cited from earlier work
[15] = test system: primary-derived human reproductive granulosa cells (HGC); assay: MTT cell viability assay; format: cell-based; details: for IC50: Homo sapiens, HGC, MTT
Description: as §4, §1, §5

[16] = test system: JAr cells; assay: MTT cell viability assay; format: cell-based; details: Homo sapiens
Description: as §4, §1, §5

[17] = test system: KGN cells; assay: Crystal violet cell viability assay; format: cell-based; details: Homo sapiens
Description: as §4, §1
(§6) After 4 and 24 h exposure to D. orbita fractions in clear 96-well plates, media and all dead unattached cells were removed. The remaining adherent cells were rinsed with sterile 1× PBS and the crystal violet assay was performed. The crystal violet assay is a colourmetric assay in which only the nuclei of live cells take up the crystal violet stain (0.5%). The absorbance in the wells of the crystal violet plates were read on an automatic spectrophotometer at 570 nm, with reference absorbance 630 nm using KC Junior Software. This assay was repeated on three separate occasions (n = 3).

[18] = test system: OVCAR-3 cells; assay: Crystal violet cell viability assay; format: cell-based; details: Homo sapiens, OVCAR-3, crystal violet
Description: as §4, §1, §6

[19] = test system: primary-derived human reproductive granulosa cells (HGC); assay: Crystal violet cell viability assay; format: cell-based
Description: as §4, §1, §6

[20] = test system: JAr cells; assay: Crystal violet cell viability assay; format: cell-based; details: Homo sapiens
Description: as §4, §1, §6

[21] = test system: MCF-7 breast carcinoma cells; parameters: method as in PMID 19491143; details: MCF-7, 4 h exposure, tyrindoleninone in an impure extract; read-out: concentration giving 50% reduction in cell viability; cited from earlier work
[22] = test system: caspase-3 and -7 in the Jurkat cell line; parameters: method as in PMID 17088067; details: after 5 h; cited from earlier work
[23] = Homo sapiens, OVCAR-3, 4 h, 4 h
[24] = Homo sapiens, OVCAR-3, 24 h, 24 h
[25] = Homo sapiens, OVCAR-3, 48 h, 48 h
[26] = Homo sapiens, OVCAR-3, 72 h, 72 h
[27] = exposure time not stated at the place (4 and 24 h tested)

CSC1=Nc2cc(Br)ccc2C1=O [Tyrindoleninone, tyrindoleninone]
LDH released (fluorescence 535EX/590EM) ([1]; 4 h, 1953 µM (0.5 mg/mL)): 1612 ± 771
concentration required to cause LDH release (necrosis) ([1]; 4 h exposure): 1953 µM
concentration required to cause LDH release (necrosis) ([1]; 24 h exposure): 195 µM
concentration at which necrosis (LDH release) was detected ([2]; OVCAR-3, 4 h exposure): 391 µM
concentration at which necrosis (LDH release) was detected ([3]; 4 h exposure): 195 µM
concentration at which caspase-3 and -7 activity (apoptosis) was noted [4]: 391 µM
concentration at which caspase-3 and -7 activity (apoptosis) significantly increased [5]: 20 µM
IC50 [6]: 391 µM
TUNEL positive cells [7]: 31%
TUNEL labelled cells [7]: 16%
IC50 [8]: 391 µM
TUNEL positive cells [9]: 66%
TUNEL labelled cells [9]: 62%
IC50 ([10]; Homo sapiens, 4 h): 39 µM
IC50 ([10]; Homo sapiens, 24 h): 78 µM
IC50 ([10]; Homo sapiens, 48 h): 20 µM
IC50 ([10]; Homo sapiens, 72 h): < 20 µM
IC50 [11, 23]: 156 µM
IC50 [11, 24]: 234 µM
IC50 [11, 25]: 31 µM
IC50 [11, 26]: < 20 µM
LDH released (fluorescence 535EX/590EM) ([12]; 4 h, 1953 µM (0.5 mg/mL)): 876 ± 1084
concentration required to cause LDH release (necrosis) ([12]; 4 h exposure): 1953 µM
concentration required to cause LDH release (necrosis) ([12]; 24 h exposure): 1953 µM
IC50 [13]: 4 µM
IC50 ([14]; 1 h exposure, read-out: IC50): 195 µM
IC50 [14]: 50 µg/mL
IC50 ([15]; 4 h): 3520 µM
IC50 ([15]; 24 h): 1560 µM
IC50 ([15]; 48 h): 1560 µM
IC50 ([15]; 72 h): 1560 µM
IC50 values fold lower for all three reproductive cancer cell lines than for the HGC ([15]; after 24, 48 and 72 h treatment, KGN, JAr, OVCAR-3 vs HGC): approximately 10 fold
IC50 ([16]; 4 h): 39 µM
IC50 ([16]; 24 h): 117 µM
IC50 ([16]; 48 h): 78 µM
IC50 ([17]; 4 h): 156 µM
IC50 ([17]; 24 h): 156 µM
IC50 ([18]; 4 h): 313 µM
IC50 ([18]; 24 h): 352 µM
IC50 ([19]; 4 h): > 1950 µM
IC50 ([19]; 24 h): > 1950 µM
IC50 ([20]; 4 h): 234 µM
IC50 ([20]; 24 h): 195 µM
IC50 [21]: 391 µM

O=C1Nc2c(cc(Br)c(Br)c2Br)C1=O [5,6,7-tribromoisatin]
concentration activating caspase-3 and -7 [22]: 8 µM

O=C1Nc2cc(Br)ccc2C1=O [6-Bromoisatin, 6-bromoisatin]
concentration at which LDH release significantly increased [1, 27]: 446 µM
concentration at which LDH release significantly increased ([2]; OVCAR-3, exposure time not stated at the place (4 and 24 h tested)): 446 µM
concentration at which LDH release significantly increased [3, 27]: 446 µM
concentration at which caspase-3 and -7 activity was detected [4]: 0.1 mg/mL
concentration at which caspase-3 and -7 activity (apoptosis) significantly increased [5]: 22 µM
change of caspase-3 and 7 activity ([5]; 24 h, 22–2232 µM (0.005–0.5 mg/mL), dose-dependent): significantly decreased
TUNEL positive cells [7]: 27%
TUNEL labelled cells [7]: 10%
TUNEL positive cells [9]: 58%
TUNEL labelled cells [9]: 53%
IC50 ([10]; 72 h): < 22 µM
IC50 ([10]; Homo sapiens, 4 h): 178 µM
IC50 ([10]; Homo sapiens, 24 h): 446 µM
IC50 ([10]; Homo sapiens, 48 h): 22 µM
IC50 ([10]; Homo sapiens, 72 h): 22 µM
IC50 [11, 23]: 402 µM
IC50 [11, 24]: 446 µM
IC50 [11, 25]: 89 µM
IC50 [11, 26]: 22 µM
IC50 ([11]; 72 h): < 22 µM
concentration required to cause LDH release (necrosis) ([12]; 4 h exposure): 2232 µM
concentration required to cause LDH release (necrosis) ([12]; 24 h exposure): 2232 µM
IC50 ([15]; 4 h): > 4460 µM
IC50 ([15]; 24 h): > 4460 µM
IC50 ([15]; 48 h): 1780 µM
IC50 ([15]; 72 h): 2230 µM
IC50 ([16]; 4 h): 223 µM
IC50 ([16]; 24 h): 446 µM
IC50 ([16]; 48 h): 446 µM
IC50 ([17]; 4 h): 892 µM
IC50 ([17]; 24 h): 223 µM
IC50 ([18]; 4 h): 446 µM
IC50 ([18]; 24 h): 268 µM
IC50 ([19]; 4 h): > 2230 µM
IC50 ([19]; 24 h): > 2230 µM
IC50 ([20]; 4 h): 223 µM
IC50 ([20]; 24 h): 178 µM
